Test system: salivary sediment (oral cavity bacteria)
Assay: Ammonia production by salivary sediment incubated with sucrose (diagnostic ammonia assay kit)
Assay type: cell-based
Details: 0.1% sucrose, 37 degrees Celsius, 30 minutes; for ammonia production, Mean: mean of three trials
Experimental: In order to investigate the effects of arginine alone, mixtures of arginine and bisabolol and bisabolol alone, on the production of ammonia in the present or oral bacterium the following procedures are carried out. Stimulated whole saliva is collected on ice and centrifuged for 15 minutes at 4000 rpm to obtain a pellet and salivary supernatant. The pellet, which is termed the salivary sediment, contains a representative array of the oral microbes found in the oral cavity. This pellet is washed twice in cold filter sterilized deionized water by centrifugation for 10 minutes at 4000 rpm.
The salivary sediment is then diluted to 50% with cold filter sterilized deionized water. Stock solutions of 1% arginine and 1% sucrose in filter sterilized deionized water are made, and a stock solution of 1% bisabolol in ethanol is also made. Reaction mixtures tested contain 16.7% final concentration salivary sediment, 0.1% final concentration sucrose and 0.0871% final concentration arginine. The control reaction mixture contains only salivary sediment, sucrose and arginine in the salivary supernatant base. The test solutions have a final concentration of 0.05 and 0.1 bisabolol, respectively. The reaction mixtures are then incubated at 37 degrees Celsius for 30 minutes with mild agitation before determining ammonia production. A standard diagnostic ammonia assay kit is used to quantify ammonia produced.
Table 1 (below) describes the results of the procedures described above, wherein the ammonia production is measured in terms of nanomole per milligram (nm/mg).
Column A in Table 1 describes data collected for three trials of L-arginine (Control) reaction mixtures that contain salivary sediment and salivary supernatant with final concentrations of 0.1% sucrose and 0.0871% L-arginine. Column B in Table 1 describes data collected for three trials of 0.05% bisabolol plus arginine reaction mixtures that contain salivary sediment and salivary supernatant with final concentrations of 0.1% sucrose, 0.05% bisabolol and 0.0871% L-arginine. Column C in Table 1 describes data collected for three trials of 0.05% bisabolol reaction mixtures that contain salivary sediment and salivary supernatant with final concentrations of 0.1% sucrose and 0.05% bisabolol. Column D in Table 1 describes data collected for three trials of 0.1% bisabolol plus arginine reaction mixtures that contain salivary sediment and salivary supernatant with final concentrations of 0.1% sucrose, 0.1% Bisabolol and 0.0871% L-arginine. Column E in Table 1 describes data collected for three trials of 0.1% bisabolol reaction mixtures that contain salivary sediment and salivary supernatant with final concentrations of 0.1% sucrose and 0.1% bisabolol.

[1] = 0.0871% L-arginine, no bisabolol, 16.7% salivary sediment
[2] = 0.05% bisabolol (with 0.0871% L-arginine in the combination), salivary sediment
[3] = 0.1% bisabolol (with 0.0871% L-arginine in the combination), salivary sediment

**Q.** How did the “ammonia production, Trial 1” value [1] turn out when `N=C(N)NCCC[C@H](N)C(=O)O` [Arginine, L-arginine, reference compound] was run?
**A.** 1532.40 nm/mg

**Q.** And the “ammonia production, Trial 2” value [1]?
**A.** 1799.88 nm/mg

**Q.** And the “ammonia production, Trial 3” value [1]?
**A.** 986.31 nm/mg

**Q.** What about the “ammonia production, Mean” value [1] of the same compound?
**A.** 1439.53 nm/mg

**Q.** Which results are given for `CC(C)=CCC[C@](C)(O)C1CC=C(C)CC1` (stereo partly drawn) [Bisabolol, bisabolol]?
**A.** ammonia production, Trial 1 [2]: 200.61 nm/mg; ammonia production, Trial 2 [2]: 27.86 nm/mg; ammonia production, Trial 3 [2]: 66.87 nm/mg; ammonia production, Trial 1 [3]: 133.74 nm/mg; ammonia production, Trial 2 [3]: 562.81 nm/mg; ammonia production, Trial 3 [3]: 228.47 nm/mg; ammonia production, Mean [2]: 98.45 nm/mg; ammonia production, Mean [3]: 308.34 nm/mg

Reference: patent US9526681B2, “Compositions and methods for treating dental caries” (Colgate-Palmolive Company, priority 2012, dated 2016)
